Measured values as given in US20150374660A1, “Ascorbate Esters of Omega-3 Fatty Acids and Their Formulations and Uses” (JIVA PHARMA, INC., priority 2013, published 2015).

Columns and labels:
[1] = system: cultured primary human myocytes; experiment: fatty acid oxidation rates in cultured primary human myocytes (radiolabeled CO2 release); format: cell-based; details: 48 hr, n=6; for differences from control in fatty acid oxidation: ethanol control, 30, 100 and 300 micromolar; for promotion of fatty acid oxidation (complete oxidation, CO2): normal primary human myocytes, 30, 100 and 300 micromolar, radiolabeled oleic acid, compared to EPAEE
From the text: FIG. 1 is a graph of the data obtained from biology tests described herein of EPA and DHA ascorbates on fatty acid oxidation rates in cultured on normal primary human myocytes. The vertical axis is the complete oxidation (nmol CO2/mg protein). The statistical variance is shown by the “T” at the top of each bar. The #1 bar (solid coral) is the ethanol as control; #2 bars (solid gray, from left to right are 30, 100 and 300 micromolar) of EPA; #3 bars (solid green, from left to right are 30, 100 and 300 micromolar) of EPAX; #4 bars (hash red and white, from left to right are 30, 100 and 300 micromolar) of DHAX; and #5 bars (solid red, from left to right are 30, 100 and 300 micromolar) of EPAEE.
Effect of EPA and DHA ascorbates on fatty acid oxidation rates in cultured primary human myocytes were determined and discussed below.
Cell-based multiwell assays for the detection of substrate accumulation and oxidation are described in literature (A. J. Wensaas, et al., J. of Lipid Research 48, 961-967 (2007)) for detecting the accumulation as well as the subsequent oxidation of ^14C labeled substrates in cultured cells. Accumulation is monitored in real time by an established scintillation proximity assay in which the scintillator is embedded in the plate base primarily detecting cell-associated radiolabel. This method was applied, and the effect of EPA and DHA ascorbates on fatty acid oxidation rates in cultured primary human myocytes was determined The compounds tested were EPA, EPAX (EPAX), DHAX (DHAX), and EPAEE.
Cultured human primary myocytes from normal (non-diabetic, non-obese) subjects
Cells treated with 30, 100 and 300 micromolar of each compound for 48 hr
Cells grown in the presence of radiolabeled oleic acid
Radiolabeled CO2 released during the incubation was measured.
Each compound was tested 6 times (n=6)

[2] = cited from earlier work

Compound | differences from control in fatty acid oxidation [1] | promotion of fatty acid oxidation (complete oxidation, CO2) [1] | solubility in aqueous ethanol ([2]; aqueous ethanol) | solubility in water ([2]; water)
CC/C=C\C/C=C\C/C=C\C/C=C\C/C=C\CCCC(=O)OC[C@H](O)[C@H]1OC(=O)C(O)=C1O [EPA ascorbate] | not statistically significant | distinct trend | – | –
CC/C=C\C/C=C\C/C=C\C/C=C\C/C=C\C/C=C\CCC(=O)OC[C@H](O)[C@H]1OC(=O)C(O)=C1O [DHA ascorbate] | not statistically significant | to a lesser degree | – | –
CCCCCCCCCCCCCCCC(=O)OC[C@H](O)[C@H]1OC(=O)C(O)=C1O [Palmitoyl ascorbate, 6-O-palmitoyl L-ascorbate] | – | – | soluble | sparingly soluble
